Measurements published in PubChem BioAssay (NCI).
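Grown in 96-well plates, cells were treated for 48 hours with each compound at five concentrations. Insufficient inhibition: endpoint recorded as highest concentration tested. GI50 is the concentration that inhibits growth by half. TGI marks complete inhibition of growth.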

Columns and labels:
Experiment in all cases: NCI tumour cell line growth inhibition, 48 h
KM12 colon = tested on: KM12 colon
786-0 renal = tested on: 786-0 renal
U251 CNS = tested on: U251 CNS
HCT-15 colon = tested on: HCT-15 colon
UO-31 renal = tested on: UO-31 renal
SN12C renal = tested on: SN12C renal
LOX IMVI melanoma = tested on: LOX IMVI melanoma
MOLT-4 leukemia = tested on: MOLT-4 leukemia
OVCAR-3 ovarian = tested on: OVCAR-3 ovarian
COLO 205 colon = tested on: COLO 205 colon

Structure (SMILES)	TGI (KM12 colon)	TGI (786-0 renal)	TGI (U251 CNS)	TGI (HCT-15 colon)	TGI (UO-31 renal)	TGI (SN12C renal)	TGI (LOX IMVI melanoma)	TGI (MOLT-4 leukemia)	TGI (OVCAR-3 ovarian)	GI50 (KM12 colon)	GI50 (786-0 renal)	GI50 (COLO 205 colon)	TGI (COLO 205 colon)	GI50 (U251 CNS)	GI50 (UO-31 renal)	GI50 (SN12C renal)	GI50 (LOX IMVI melanoma)	GI50 (OVCAR-3 ovarian)	GI50 (HCT-15 colon)	GI50 (MOLT-4 leukemia)
O=C(CC(=O)c1cccc([N+](=O)[O-])c1)C(=O)Nc1ccccc1	> 100 µM	> 100 µM	> 100 µM	> 100 µM	> 100 µM	> 100 µM	> 100 µM	> 100 µM	> 100 µM	–	–	–	–	–	–	–	–	–	–	–
CCN(CC)CC(O)c1cc(-c2ccc(Cl)cc2)nc2c(C)c(Cl)ccc12 (centres undefined)	3.14 µM	3.18 µM	3.33 µM	–	2.16 µM	3.22 µM	2.77 µM	–	2.9 µM	1.72 µM	1.69 µM	1.77 µM	3.35 µM	1.77 µM	0.549 µM	1.5 µM	1.41 µM	1.51 µM	–	–
CN(C)C1CN(C(=O)c2cc(-c3ccc4ncnc(N5CCc6cc(F)c(Cl)cc65)c4c3)cnc2N)C1	> 100 µM	> 100 µM	> 100 µM	> 100 µM	> 100 µM	> 100 µM	> 100 µM	–	5.2 µM	1.13 µM	0.436 µM	1.97 µM	> 100 µM	1.34 µM	0.237 µM	0.385 µM	0.458 µM	0.585 µM	0.495 µM	–
CN(C)c1ccc(/C=c2/c3cc(O)ccc3n3c2cc(-c2ccccc2)[n+]3C)cc1	2.29 µM	–	1.52 µM	> 100 µM	31.7 µM	–	2.47 µM	–	–	–	1.31 µM	–	–	–	4.45 µM	0.187 µM	–	–	–	–
O=C(CC1(O)C(=O)Nc2ccccc21)c1ccccc1O (centres undefined)	–	> 100 µM	–	> 100 µM	> 100 µM	> 100 µM	> 100 µM	> 100 µM	> 100 µM	–	–	–	> 100 µM	–	–	–	–	–	–	–
CCc1ccccc1NC(=O)C(=O)C1C(=O)N(c2ccccc2)N=C1N (centres undefined)	> 100 µM	> 100 µM	> 100 µM	> 100 µM	> 100 µM	> 100 µM	> 100 µM	> 100 µM	> 100 µM	–	–	–	–	–	–	–	–	–	–	–
CCn1ncc(N=O)c1N	> 100 µM	> 100 µM	–	> 100 µM	> 100 µM	> 100 µM	> 100 µM	> 100 µM	> 100 µM	–	–	–	> 100 µM	–	–	–	–	–	–	–
CCN(/N=C1\CC2C=CCN(C2)C(=O)Cc2c1[nH]c1ccccc21)S(=O)(=O)c1ccc(C)cc1 (centres undefined)	> 100 µM	> 100 µM	> 100 µM	> 100 µM	> 100 µM	> 100 µM	> 100 µM	> 100 µM	–	–	–	–	> 100 µM	–	–	–	–	–	–	–
COc1cc(C2CC(c3cccc(Nc4ccnc5cc(Cl)ccc45)c3)=NN2c2ccccc2)cc(OC)c1OC (centres undefined)	> 100 µM	> 100 µM	–	> 100 µM	> 100 µM	> 100 µM	> 100 µM	> 100 µM	> 100 µM	2 µM	5.88 µM	15.7 µM	46.3 µM	–	1.68 µM	> 100 µM	2.3 µM	8.64 µM	2.91 µM	7.98 µM
